Patent publication US20160009752A1, “[…]-OXIMINO-AMINOALKYLETHERS AND PROCESS FOR PREPARATION THEREOF, USEFUL AS ANTIDIABETIC AND […] AGENTS” (COUNCIL OF SCIENTIFIC & INDUSTRIAL RESEARCH, priority 2013, published 2016)

How the values were obtained:
db/db mice = test: db/db mice: blood glucose, OGTT, serum lipid and insulin; type: in vivo; details: for decrease in plasma insulin levels / enhancement of HDL-cholesterol level / lowering of serum triglycerides level (TG) / lowering of total cholesterol (T-Chol) level: 15 days
Experimental: Male C57BL/KsJ-db/db mice (8 to 12 weeks old, 35-45 g body weight) were procured from National Animal Laboratory Centre (NALC) of Central Drug Research Institute (CDRI), Lucknow, India. Animals were housed in polypropylene cages, in controlled environment (temperature 25±2° C.; humidity 50-60%; light 300 lux at floor level with regular 12 h light-12 h dark cycle; noise level 50 decibel; ventilation 10-15 air changes per hour). They were provided with a standard laboratory diet (Dayal Industry, Barabanki, Lucknow) unless stated otherwise and had free access to water. The animals were allocated into groups of 5 animals in each. Prior to start of the test sample feeding, a vehicle training period was followed from day −3 to day 0 during which all the animals were given vehicle (1% gum acacia) at a dose volume of 10 ml/kg body weight. At day 0 the animals having blood glucose level between 180 to 300 mg/di were selected and divided into three groups containing 5 animals in each. One group was considered as control group while the other group one was treatment group. The treatment groups were given suspensions of 14b at 1.0 and 3.0 mg/kg body weight, dose, respectively. The control group was given an equal amount of vehicle. All the animals had free access to fresh water and normal diet. Random blood glucose of each mouse was checked daily at 11.00. […] Blood has been withdrawn from the retro-orbital plexus of mice eye for the estimation of lipid profile and insulin.
In type 2 diabetes, elevated blood glucose level due to defect in peripheral glucose disposal results in hyperglycaemia. To observe the improvement on hyperglycaemia 14b was orally gavaged for 15 consecutive days and after dosing blood glucose of control and treated group were measured.

[1] = test system: sucrose challenged low dosed STZ-induced diabetic rats; test: Sucrose challenged low dosed streptozotocin-induced diabetic rats (STZ-S); type: in vivo, rat
Experimental: Fasting blood glucose level of each animal was measured after 48 hours post STZ injection by Glucostrips (Roche) using Glucometer (ACCU-CHEK II; Roche Diagnostics, USA) and animals showing blood glucose level above 280 mg/dl were considered as diabetic. The diabetic rats with fasting blood glucose values varying between […] were included in this study. Animals were divided into groups consisting of five animals in each. Group one was considered as a control group, where as the other groups were termed as experimental groups. […] The test samples and standard drug (Metformin) was always prepared in the vehicle 1% gum acacia. […] Food (not water) was removed from the cages during the experimental period. […] The percent decline in AUC of the experiment group compared to sham treated control group termed as % antihyperglycaemic activity. Statistical analysis between the groups was done by employing Students t test.

[2] = test system: STZ-induced diabetic rats; test: Streptozotocin-induced diabetic rat model (STZ); type: in vivo; details: 100 mg/kg
Experimental: Male albino rats (Sprague Dawley Strain) of body weight 160±20 g were procured from the colony of CDRI Animal House. 4 to 5 animals were kept in one polypropylene cage and acclimatized for one week in the new environment. The animals were made diabetic by injecting streptozotocin (STZ) intraperitoneally to the overnight starved animals at a dose of 60 mg/kg prepared in 100 mM citrate buffer (pH 4.5). Fasting blood glucose level of each animal was measured after 48 hours post STZ injection by Glucostrips (Roche) using Glucometer (ACCU-CHEK II; Roche Diagnostics, USA) and animals showing blood glucose level above 280 mg/dl were considered as diabetic. The diabetic rats with fasting blood glucose values varying between 280-450 mg/dl were included in this study. Animals were divided into groups consisting of five animals in each. Group one was considered as a control group, where as the other groups were termed as experimental groups. Rats of experimental group were usually given 100 mg/kg body weight of the test samples unless stated otherwise and standard drug i.e. metformin, respectively. The test samples and standard drug i.e. metformin was always prepared in the vehicle 1% gum acacia. 30 min post administration of the test samples/vehicle/standard drug, blood glucose levels of the animals of all the groups were measured at 30, 60, 90, 120, 180, 240, 300 and 1440 min. Food (not water) was removed from the cages during the experimental period. A plot was drawn between time and blood glucose levels on x and y axis, respectively and the area under curve (AUC) between 0 to 300 min were calculated of each group. The percent decline in AUC of the experiment group compared to sham treated control group termed as % antihyperglycaemic activity. Statistical comparison between the groups was done by employing Student's ‘t’ test.

[3] = Stability in simulated gastric and intestinal fluid; type: in vitro ADME

C/C(=N\OCCN1CCCCC1)[C@H]1CC[C@H]2[C@@H]3CC=C4C[C@@H](O)CC[C@]4(C)[C@H]3CC[C@]12C [Compound 14b, 3β-Hydroxy-pregna-5-en-20-one-O-(2-piperidin-1-yl-ethyl)-oxime]
decrease in plasma insulin levels (db/db mice; 1.0 mg/kg oral): 4.03% | enhancement of HDL-cholesterol level (db/db mice; 1.0 mg/kg oral): 6.18% | lowering of serum triglycerides level (TG) (db/db mice; 1.0 mg/kg oral): 13.8% | lowering of total cholesterol (T-Chol) level (db/db mice; 1.0 mg/kg oral): 13.3% | decrease in plasma insulin levels (db/db mice; 3.0 mg/kg oral): 8.06% | enhancement of HDL-cholesterol level (db/db mice; 3.0 mg/kg oral): 13.6% | lowering of serum triglycerides level (TG) (db/db mice; 3.0 mg/kg oral): 18.9% | lowering of total cholesterol (T-Chol) level (db/db mice; 3.0 mg/kg oral): 16.7% | blood glucose levels vs vehicle treated group, in words (db/db mice; 1.0 and 3.0 mg/kg oral, 15 consecutive days, FIG. 8): decline in their blood glucose levels | % Antihyperglycaemic activity (OGTT improvement) (db/db mice; day 10th, 1.0 mg/kg): 10.3% | Blood glucose profile, 0 min post glucose load (db/db mice; day 10th, 1.0 mg/kg): 211.6 ± 11.8 mg/dL | Blood glucose profile, 30 min post glucose load (db/db mice; day 10th, 1.0 mg/kg): 559.8 ± 24.8 mg/dL | Blood glucose profile, 60 min post glucose load (db/db mice; day 10th, 1.0 mg/kg): 568.0 ± 12.9 mg/dL | Blood glucose profile, 90 min post glucose load (db/db mice; day 10th, 1.0 mg/kg): 502.8 ± 23.6 mg/dL | Blood glucose profile, 120 min post glucose load (db/db mice; day 10th, 1.0 mg/kg): 437.8 ± 14.1 mg/dL | decline in fasting blood glucose level (db/db mice; day 10th, 1.0 mg/kg): ~21.2% | % Antihyperglycaemic activity (OGTT improvement) (db/db mice; day 10th, 3.0 mg/kg): 15.1% | Blood glucose profile, 0 min post glucose load (db/db mice; day 10th, 3.0 mg/kg): 190.2 ± 12.9 mg/dL | Blood glucose profile, 30 min post glucose load (db/db mice; day 10th, 3.0 mg/kg): 542.2 ± 24.1 mg/dL | Blood glucose profile, 60 min post glucose load (db/db mice; day 10th, 3.0 mg/kg): 523.2 ± 22.7 mg/dL | Blood glucose profile, 90 min post glucose load (db/db mice; day 10th, 3.0 mg/kg): 482.0 ± 20.5 mg/dL | Blood glucose profile, 120 min post glucose load (db/db mice; day 10th, 3.0 mg/kg): 414.0 ± 9.4 mg/dL | decline in fasting blood glucose level (db/db mice; day 10th, 3.0 mg/kg): ~29.1% | % Antihyperglycaemic activity (OGTT improvement) (db/db mice; day 15th, 1.0 mg/kg): 16.9% | Blood glucose profile, 0 min post glucose load (db/db mice; day 15th, 1.0 mg/kg): 183.6 ± 7.86 mg/dL | Blood glucose profile, 30 min post glucose load (db/db mice; day 15th, 1.0 mg/kg): 499.2 ± 36.1 mg/dL | Blood glucose profile, 60 min post glucose load (db/db mice; day 15th, 1.0 mg/kg): 560.6 ± 14.6 mg/dL | Blood glucose profile, 90 min post glucose load (db/db mice; day 15th, 1.0 mg/kg): 468.8 ± 19.5 mg/dL | Blood glucose profile, 120 min post glucose load (db/db mice; day 15th, 1.0 mg/kg): 383.8 ± 8.46 mg/dL | decline in fasting blood glucose level (db/db mice; day 15th, 1.0 mg/kg): around 25.5% | % Antihyperglycaemic activity (OGTT improvement) (db/db mice; day 15th, 3.0 mg/kg): 24.5% | Blood glucose profile, 0 min post glucose load (db/db mice; day 15th, 3.0 mg/kg): 160.2 ± 6.88 mg/dL | Blood glucose profile, 30 min post glucose load (db/db mice; day 15th, 3.0 mg/kg): 458.8 ± 16.6 mg/dL | Blood glucose profile, 60 min post glucose load (db/db mice; day 15th, 3.0 mg/kg): 513.2 ± 13.1 mg/dL | Blood glucose profile, 90 min post glucose load (db/db mice; day 15th, 3.0 mg/kg): 420.0 ± 13.2 mg/dL | Blood glucose profile, 120 min post glucose load (db/db mice; day 15th, 3.0 mg/kg): 348.0 ± 13.2 mg/dL | decline in fasting blood glucose level (db/db mice; day 15th, 3.0 mg/kg): ~35.1% | Blood glucose level, 0 min post sucrose load ([1]; 100 mg/kg): 222.0 ± 7.9 mg/dL | Blood glucose level, 30 min post sucrose load ([1]; 100 mg/kg): 452.6 ± 18.2 mg/dL | Blood glucose level, 60 min post sucrose load ([1]; 100 mg/kg): 524.8 ± 11.2 mg/dL | Blood glucose level, 90 min post sucrose load ([1]; 100 mg/kg): 468.2 ± 12.6 mg/dL | Blood glucose level, 120 min post sucrose load ([1]; 100 mg/kg): 412.6 ± 5.8 mg/dL | Blood glucose level, 180 min post sucrose load ([1]; 100 mg/kg): 345.2 ± 9.2 mg/dL | Blood glucose level, 240 min post sucrose load ([1]; 100 mg/kg): 311.6 ± 3.7 mg/dL | Blood glucose level, 300 min post sucrose load ([1]; 100 mg/kg): 264.8 ± 8.7 mg/dL | Blood glucose level, 1440 min post sucrose load ([1]; 100 mg/kg): 414.8 ± 8.3 mg/dL | % Antihyperglycemic activity STZ-S 0-5 hr ([1]; Table 2): 28.9% | % Antihyperglycemic activity STZ-S 0-24 hr ([1]; Table 2): 25.2% | Blood glucose level, 0 min post sucrose load [2]: 357.4 ± 17.9 mg/dL | Blood glucose level, 30 min post sucrose load [2]: 353.8 ± 6.3 mg/dL | Blood glucose level, 60 min post sucrose load [2]: 387.0 ± 20.8 mg/dL | Blood glucose level, 90 min post sucrose load [2]: 374.4 ± 23.1 mg/dL | Blood glucose level, 120 min post sucrose load [2]: 375.0 ± 20.2 mg/dL | Blood glucose level, 180 min post sucrose load [2]: 366.6 ± 16.7 mg/dL | Blood glucose level, 240 min post sucrose load [2]: 333.0 ± 11.7 mg/dL | Blood glucose level, 300 min post sucrose load [2]: 301.4 ± 12.1 mg/dL | Blood glucose level, 1440 min post sucrose load [2]: 408.0 ± 17.1 mg/dL | stability in simulated gastric fluid (SGF) ([3]; SGF): low stability | stability in simulated intestinal fluid (SIF) ([3]; SIF): good stability | melting point: 130 to 135 °C
